The source of these data is US9839618B2, “Compositions and methods relating to proliferative diseases” (The Penn State Research Foundation, priority 2010, dated 2017).

The subject of assay [1] is cell lines established from melanocytic lesions or melanomas. As to the kind of experiment: MTS assay, leelamine on melanocytic lesion and melanoma cell lines. It counts as cell-based. As to conditions: 72 hour exposure; read-out: concentration to kill 50% of cells. How it is done: The efficacy of leelamine to kill other cancer types is measured and the IC50 for cell lines derived from carcinomas of breast, lung, prostate, connective tissue, pancreas and colon determined. The MTS assay as described in Sharma, A. et al., Clin Cancer Res, 2009, 15:1674-85; and Madhunapantula, S. V. et al., Mol Cancer Ther, 2008, 7:1297-308 is used to establish the IC50 at 24, 48 and 72 hours of leelamine treatment for normal human epidermal melanocytes (FOM103), normal skin fibroblast cells (FF2441), normal skin keratinocytes (HFK) and compared to melanocytic lesion cells from the radial-, vertical- and metastatic melanoma stages. […] IC50 values for each compound in μmol/L for respective cell lines are measured from three independent experiments using GraphPad Prism version 4.01 (GraphPad Software, La Jolla, Calif.). […]
5×10^3 cells per well in 100 μL of media are plated and grown in a 96-well plate for 48 to 72 hours and treated with either DMSO vehicle control or 0.62 to 40 μmol/L of leelamine for 24, 48 or 72 hours. IC50 values for each compound in μmol/L for respective cell lines are measured from three independent experiments using GraphPad Prism version 4.01 (GraphPad Software, La Jolla, Calif.).
A general note: Tetrazolium dyes change colour on reduction, which living cells bring about.

The subject of assay [2] is UACC 903 xenograft tumors. In words: Size and time matched tumors (Ki-67, TUNEL, CD31, Western blot). The class given is in vivo, mice. An excerpt: Rates of cell proliferation (using Ki-67), apoptosis (using terminal deoxynucleotidyl transferase-mediated dUTP nick-end labeling) and tumor angiogenesis (using CD31 staining) are quantified in time and size matched tumors treated with leelamine compared with DMSO treated control animals to identify the underlying mechanism by which leelamine inhibits melanoma tumor development using an established method described in Sharma, A. et al., Clin Cancer Res, 2009, 15:1674-85; Madhunapantula, S. V. et al., Mol Cancer Ther, 2008, 7:1297-308; Sharma, A. et al., Cancer Res, 2006, 66:8200-9; and Stahl, J. M. et al., Cancer Res, 2003, 63:2881-90. Size and time matched tumors at each time are compared to identify the first statistically quantifiable difference(s) affected by leelamine treatment in the rates of processes regulating tumor development i.e. cell proliferation, apoptosis or vascular development. […] Cell proliferation is measured using mouse anti-human Ki-67 staining from Pharmigen (San Diego, Calif.). Apoptosis rates are scored using “terminal deoxynucleotidyl transferase-mediated dUTP nick end labeling (TUNEL)” TMR Red Apoptosis kit from Roche (Mannheim, Germany). […] The number of Ki-67 and TUNEL positive cells is quantified as the percentage of total cells in tumors using the IP Lab imaging software program. For CD31, the area occupied by blood vessels is measured. […]

The subject of assay [3] is UACC 903 and 1205 Lu melanoma cells. In words: Cell cycle analysis (propidium iodide, FACScan). It counts as cell-based, human. As to conditions: 2 or 3 μmol/L, 24 h. On the procedure: Analysis of the effects of leelamine on cell cycle is performed by growing UACC 903 and 1205 Lu melanoma cells in 100-mm culture dishes followed by treatment with 2 or 3 μmol/L of leelamine for 24 h. Total floating and adherent cells are collected following trypsinization and stained using 1 mL propidium iodide solution containing 100 μg/mL propidium iodide; (Sigma, St Louis, Mo.), 20 μg/mL Ribonuclease A (Roche diagnostics, Indianapolis, Ind.) and 3 μg/mL Triton X-100 dissolved in 0.1% (W/V) sodium citrate for 30 m at 4° C. Stained cells are analyzed using the FACScan analyzer (Becton Dickinson, Franklin lakes, NJ) and data processed utilizing ModFit LT software (Verity Software House, Topsham, Me.) as described in Sharma, A. et al., Clin Cancer Res, 2009, 15:1674-85; and Madhunapantula, S. V. et al., Mol Cancer Ther, 2008, 7:1297-308.

As for `CC(C)c1ccc2c(c1)CCC1[C@](C)(CN)CCC[C@]21C` (stereo partly drawn) [Leelamine, [(1R,4aS)-1,4a-dimethyl-7-(propan-2-yl)-1,2,3,4,4a,9,10,10a-octahydrophenanthren-1-yl]methanamine], in assay [1], the IC50 lay within 1 to 3 µM. The “reduction in proliferating cells (Ki-67)” value in assay [2] (day 11, i.p. 7.5 mg/kg daily from day 6, vs DMSO) is reported as 50%. In assay [2] (days 11, 13 and 15, treated from day 6), the “active pAkt in tumor lysates (Western blot)” value is “decreased active pAkt”. Also, the cell cycle distribution result in assay [3] was “increased percentage of sub-G0-G1 and G0/G1 cell populations, with a corresponding decrease in S-phase population”.
